Here are results for twelve compounds from ChEMBL document CHEMBL3526069, “Human pharmacokinetic prediction of UDP-glucuronosyltransferase substrates with an animal scale-up approach” (Drug Metab Dispos, 2011).

Series [1] in a line: Plasma clearance in human.
Series [2] is described as follows: Plasma clearance in po dosed human.
Series [3] is described as follows: Drug metabolism in bile duct-cannulated rat assessed as glucuronide concentration in bile and urine at 0.2 mg/kg, iv up to 24 hrs by LC/MS/MS analysis. It is filed as ADME, organism-based. The arrangement: dose 0.2 mg/kg, route intravenous. The note with it: in vivo.
Series [4] in a line: Drug metabolism in gallbladder-cannulated mouse assessed as glucuronide concentration in bile and urine at 0.2 mg/kg, iv up to 24 hrs by LC/MS/MS analysis. To be noted: in vivo. The arrangement: dose 0.2 mg/kg, route intravenous. It is filed as ADME, organism-based.
Series [5] is described as follows: Drug metabolism in bile duct-cannulated dog assessed as glucuronide concentration in bile and urine at 0.2 mg/kg, iv up to 24 hrs by LC/MS/MS analysis. It is filed as ADME, organism-based, Canis lupus familiaris. The arrangement: dose 0.2 mg/kg, route intravenous. The note with it: in vivo.
The nature of series [6]: in vitro. The note with it: mouse, plasma.
Description: Fraction unbound in mouse plasma by ultracentrifugation method
The nature of series [7]: in vitro. The note with it: rat, plasma.
Description: (§1) Fraction unbound in rat plasma by ultracentrifugation method
Series [8] in a line: in vitro. To be noted: rhesus monkey, plasma.
Description: Fraction unbound in monkey plasma by ultracentrifugation method
Series [9] in a line: in vitro. The note with it: dog, plasma.
Description: Fraction unbound in dog plasma by ultracentrifugation method
The nature of series [10]: in vitro. The note with it: human, plasma.
Description: (§2) Fraction unbound in human plasma by ultracentrifugation method
Series [11] is described as follows: in vitro. To be noted: mouse.
Description: Ratio of drug level in blood to plasma in mouse
Series [12] can be described thus: in vitro. To be noted: rat.
Description: Ratio of drug level in blood to plasma in rat
Series [13] can be described thus: in vitro. To be noted: rhesus monkey.
Description: Ratio of drug level in blood to plasma in monkey
Series [14] is described as follows: in vitro. The note with it: dog.
Description: Ratio of drug level in blood to plasma in dog
The nature of series [15]: in vitro. The note with it: human.
Description: Ratio of drug level in blood to plasma in human
Series [16] in a line: clinical. To be noted: human, in vivo.
Description: (§3) Volume of distribution at steady state in human
Series [17] is described as follows: clinical. To be noted: human, in vivo. The source holds these as a separate data set.
Series [18] is described as follows: Drug metabolism in human assessed as glucuronide concentration in urine.
Series [19] can be described thus: Drug metabolism in bile duct-cannulated cynomolgus monkey assessed as glucuronide concentration in bile and urine at 0.2 mg/kg, iv up to 24 hrs by LC/MS/MS analysis. The note with it: in vivo.
The test system of series [20] is Plasma. The note with it: human.
Description: as §2
In series [21] the test system is Plasma. The note with it: rat.
Description: as §1
The species named for series [22] is Homo sapiens. To be noted: in vivo.
Description: as §3
Series [23] is filed under the species Homo sapiens. The note with it: in vivo. The source holds these as a separate data set.

The structures appear in SMILES notation.

Take `O=C([O-])Cc1ccccc1Nc1c(Cl)cccc1Cl.[Na+]` [DICLOFENAC SODIUM]: the clearance (commonly the volume of plasma or blood freed of the substance per unit of time) in [1] (in vivo) was 3.5 mL/min/kg. Also, in series [2] (in vivo), the CL/F (as a rule, clearance divided by bioavailability, as obtained after extravascular dosing) worked out at 6.48 mL/min/kg. In addition, the Fm turned out to be 0.065 in series [3]; 0.261 in series [4]; 0.522 in series [5]; 0.15 in series [18]; 0.29 in series [19]. Besides, the fraction unbound (usually free concentration divided by total concentration) in “in vitro [6]” is 0.005; in “in vitro [7]”, 0.006; in the series “in vitro [8]”, 0.005; in “in vitro [9]”, 0.003; in “in vitro [10]”, 0.003. The blood plasma ratio in the series “in vitro [11]” came out at 0.67; in the series “in vitro [12]”, 1.57; in the series “in vitro [13]”, 1.01; in the series “in vitro [14]” it was 1.01; in the series “in vitro [15]” it was 0.71. Also, the distribution volume (Vd) (as a rule, the apparent volume that relates the amount in the body to the concentration in plasma or blood) in the series “clinical [16]” turned out to be 0.22 L/kg. Further, in “clinical [17]”, the half-life (in general, how long it takes for the measured level to halve) is 0.726 h.
Turning to `COc1c(C)c2c(c(O)c1C/C=C(\C)CCC(=O)O)C(=O)OC2` [MYCOPHENOLIC ACID], the clearance in series [1] (plasma) worked out at 3.31 mL/min/kg. In series [2] (plasma), this compound gave a CL/F of 3.54 mL/min/kg. In addition, the Fm in series [3] is 0.096; in series [4], 0.966; in [5], 0.99; in [18], 0.9; in series [19] it was 0.54. Moreover, the Fu in the series with Plasma [20] is recorded as 0.003. The fraction unbound in the series “in vitro [6]” is 0.028; in the series “in vitro [7]”, 0.004; in “in vitro [8]”, 0.011; in “in vitro [9]”, 0.003. Also, the blood plasma ratio was 0.81 in “in vitro [11]”; 0.94 in “in vitro [12]”; 0.97 in “in vitro [13]”; 0.75 in “in vitro [14]”; 0.69 in “in vitro [15]”. The Vd in the series “clinical [16]” was 4.75 L/kg. Also, the half-life in the series “clinical [17]” is 16.6 h.
In [1] (plasma), `C[C@H]1COc2c(N3CCN(C)CC3)c(F)cc3c(=O)c(C(=O)O)cn1c23.Cl` [LEVOFLOXACIN HYDROCHLORIDE] displayed a clearance of 1.9 mL/min/kg. Also, the CL/F in series [2] (plasma) amounted to 1.9 mL/min/kg. Further, the Fm is on record as 0.644 in [3]; 0.229 in series [4]; 0.061 in [5]; under 0.015 in [18]; 0.82 in series [19]. Moreover, the free fraction (fraction unbound) turned out to be 0.826 in “in vitro [7]”, 0.871 in the series “in vitro [8]”, 0.922 in “in vitro [9]” and 0.784 in “in vitro [10]”. This compound also yielded a Vd in “clinical [16]” of 1.2 L/kg. Further, in the series “clinical [17]”, the half-life was 7.3 h.
Take `CC(C(=O)O)c1cccc(C(=O)c2ccccc2)c1` (stereo not drawn) [KETOPROFEN]: the values for the Fm in series [4] and in [5] were 0.01 and 0.163, respectively.
With `O=C1Nc2ccc(Cl)cc2C(c2ccccc2Cl)=NC1O` (stereo not drawn) [LORAZEPAM], the clearance in series [1] (plasma) was found to be 1.21 mL/min/kg. The CL/F in series [2] (plasma) stood at 1.21 mL/min/kg. Moreover, the Fm came out at 0.085 in series [3]; 0.436 in series [4]; 0.785 in series [5]; 0.81 in series [18]; 0.53 in series [19]. Besides, the fraction unbound was found to be 0.158 in the series “in vitro [6]”; 0.09 in the series “in vitro [7]”; 0.103 in the series “in vitro [8]”; 0.073 in the series “in vitro [9]”; 0.057 in the series “in vitro [10]”. Further, the blood plasma ratio in the series “in vitro [11]” turned out to be 0.92; in “in vitro [12]”, 1.09; in the series “in vitro [13]” it was 0.87; in “in vitro [14]”, 0.77; in “in vitro [15]”, 1.14. Moreover, in “clinical [17]”, the half-life was 12.4 h.
For the compound `Cc1cn([C@H]2C[C@H](N=[N+]=[N-])[C@@H](CO)O2)c(=O)[nH]c1=O` [ZIDOVUDINE], the CL/F in series [2] (plasma) came to 33.3 mL/min/kg. In addition, the Fm in [3] stood at 0.02; in series [4] it was 0.034; in [5] it was 0.134; in series [18] it was 0.85; in series [19], 0.08. Moreover, the fraction unbound came out at 0.896 in the series “in vitro [6]”, 0.734 in “in vitro [7]”, 0.827 in the series “in vitro [9]” and 0.695 in “in vitro [10]”. Besides, the half-life in the series “clinical [17]” is 0.832 h.
`CCCc1nc2c(C)cc(-c3nc4ccccc4n3C)cc2n1Cc1ccc(-c2ccccc2C(=O)O)cc1` displayed a CL/F in [2] (plasma) of 17.8 mL/min/kg. The Fm in series [3] worked out at 0.396; in [4], 0.118; in series [5], 0.99; in [19], 0.47. In addition, the fraction unbound was 0.071 in “in vitro [6]”; 0.007 in the series “in vitro [7]”; 0.008 in “in vitro [8]”; 0.018 in “in vitro [9]”; 0.003 in “in vitro [10]”. In addition, the blood plasma ratio in the series “in vitro [11]” came to 0.54; in the series “in vitro [12]”, 1.25; in “in vitro [13]”, 1.16; in the series “in vitro [14]”, 1.18; in “in vitro [15]” it was 1.24. The compound also gave a half-life in “clinical [17]” of 7.29 h.
On to `CN(C)CCCN1c2ccccc2CCc2ccccc21.Cl` [IMIPRAMINE HYDROCHLORIDE], for which the Fm stood at 0.014 in series [3], 0.005 in [5], 0.1 in series [18] and 0.04 in [19]. In addition, the fraction unbound was 0.063 in the series “in vitro [6]”, 0.03 in the series “in vitro [8]” and 0.104 in the series “in vitro [10]”. For the same compound, in the series “clinical [16]”, the Vd amounted to 12 L/kg. In “clinical [17]”, this compound showed a half-life of 10.7 h.
Consider `COc1ccc2c(c1)c(CC(=O)O)c(C)n2C(=O)c1ccc(Cl)cc1` [INDOMETHACIN], for which, in series [1] (plasma), the clearance came out at 1.58 mL/min/kg. The CL/F in series [2] (plasma) worked out at 1.58 mL/min/kg. In addition, the Fm in series [3] is reported as 0.004; in series [4], 0.001; in series [5], 0.01; in [18], 0.217; in series [19], 0.94. In addition, the Fu in the series with Plasma [20] was found to be 0.1. The fraction unbound in “in vitro [6]” is 0.009; in “in vitro [7]” it was 0.004; in “in vitro [8]”, 0.005; in “in vitro [9]” it was 0.005. For the same compound, the blood plasma ratio in “in vitro [11]” was found to be 0.46; in the series “in vitro [12]”, 0.97; in the series “in vitro [13]” it was 1.06; in the series “in vitro [14]”, 0.65; in “in vitro [15]”, 0.98. Moreover, the Vd in the series “clinical [16]” stood at 0.925 L/kg. In the series “clinical [17]”, this compound gave a half-life of 6.77 h.
As for `NS(=O)(=O)c1cc(C(=O)O)c(NCc2ccco2)cc1Cl` [FUROSEMIDE], the Fm in series [3] worked out at 0.052; in series [4] it was 0.005; in series [5], 0.17; in series [18], 0.14; in series [19], 0.671.
Regarding `Cc1ccc(C)c(OCCCC(C)(C)C(=O)O)c1` [GEMFIBROZIL], in series [1] (in vivo), the clearance amounted to 1.7 mL/min/kg. The CL/F in [2] (in vivo) was found to be 1.73 mL/min/kg. Also, the Fm in series [3] is 0.366; in series [4], 0.173; in series [5] it was 0.69; in series [18] it was 0.4; in series [19], 0.35. The fraction unbound in the series “in vitro [6]” is 0.041; in “in vitro [7]”, 0.01; in “in vitro [8]”, 0.007; in “in vitro [9]”, 0.004; in “in vitro [10]” it was 0.005. Also, the blood plasma ratio is 0.68 in the series “in vitro [11]”; 0.83 in “in vitro [12]”; 0.67 in the series “in vitro [13]”; 0.64 in “in vitro [14]”; 0.75 in “in vitro [15]”. This compound also came in with a Vd in the series “clinical [16]” of 1.11 L/kg. This compound also had a half-life in “clinical [17]” of 7.6 h.
Take `O=C(c1ccc(OCCN2CCCCC2)cc1)c1c(-c2ccc(O)cc2)sc2cc(O)ccc12` [RALOXIFENE]: the clearance in [1] (plasma) was 14.7 mL/min/kg. Also, the Fm is recorded as 0.214 in series [3]; 0.243 in series [4]; 0.196 in series [5]; 0.9 in [18]; 0.38 in [19]. In the series on Plasma [21], this compound came in with a Fu of 0.004. Moreover, the volume of distribution (Vdss) (commonly the apparent volume that relates the amount in the body to the concentration in plasma or blood) in the series filed under Homo sapiens [22] was 47 L/kg. The compound also gave a t1/2 in the series listed under Homo sapiens [23] of 36.9 h. The fraction unbound in the series “in vitro [6]” was found to be 0.006; in the series “in vitro [8]”, 0.004; in “in vitro [9]”, 0.003; in the series “in vitro [10]”, 0.002.
